Data published in PubChem BioAssay AID2060906 (Molecular Pharmacology Branch, DTP, NCI, 2025).

Test system: 485176-168-R4-J1-PDC complex spheroid growth
Assay: Anticancer human tumor 485176-168-R4-J1-PDC patient-derived pancreatic adenocarcinoma cell line growth inhibition [RAS]
Details: for viability, T/C: stronger effect = lower value; active = viability on the fitted dose curve at most 10% of control; inactive = the rest
Text: RAS pathway inhibitors in Combinations in Complex Spheroids
A high-throughput screen of multi-cell type tumor spheroids was designed to identify active combinations of RAS pathway inhibitors and targeted small molecules. Complex spheroids include a stromal component modeled by human endothelial cells (HUVEC) and fibroblasts modeled by human mesenchymal stem cells (MSCs). The concentration ranges selected for each drug and investigational agent were based upon clinically achievable concentrations if the clinical Cmax of the agent was known.
Compounds. The drugs and investigational agents: abemaciclib (NSC768073), cobimetinib (NSC768068), divarasib (GDC6063, NSC841802), docetaxel (NSC628503), GDC-1971 (RLY-1971, NSC841576), gemcitabine (NSC613327), inavolisib (NSC800729), ipatasertib (NSC767898), KB-0742 (NSC834161), MRTX-1133 (NSC836407), osimertinib (NSC779217), RMC-4630 (NSC839698), RMC-6236 (NSC851965), RMC-6291 (NSC852671), Ro-3306 (NSC812927), sapanisertib (NSC764658), SN-38 (NSC673596), staurosporine (NSC755774), SY5609 (NSC837396), and tovorafenib (DAY101, NSC766906), were obtained from the National Cancer Institute (NCI) Developmental Therapeutics Program Chemical Repository. The FDA-approved anticancer drug set is available from the NCI Developmental Therapeutics Program. […] The stock solutions were prepared in dimethyl sulfoxide (DMSO, Sigma-Aldrich, St. Louis, MO, cat. D2650) at 800-fold the tested concentration and stored at -70 degrees C prior to their use. All drugs and investigational agents were tested over a range starting from a high concentration at or near the clinical Cmax and decreasing in half-log increments. If the clinical Cmax for an agent had not been determined, the highest concentration tested was 10 microM.
Cell Culture. All cells were maintained in an incubator at 37 degrees C and 5% CO2 with 95% humidity. The PDC lines were cultured according to standard operating procedures established by the NCI PDMR. All PDCs were thawed and cultured in Matrigel-coated flasks prepared with a working solution of 1X Ham's F-12 nutrient mix, without supplementation (Invitrogen, Waltham, MA, cat. 11765054), 100 U/mL penicillin-streptomycin (Invitrogen, cat. 15140122), and 2.5% Matrigel (Corning Inc., Corning, NY, cat. 354248) for the first three passages. The 362531-283-R-J2-PDC and 782815-120-R-J1-PDC lines were cultured in 6C/Colon 1B media, which includes advanced DMEM/F-12 (Thermo Fisher Scientific, cat. 12634028), 10 mM HEPES (Thermo Fisher Scientific, cat. 15630080), 1X GlutaMAX supplement (Thermo Fisher Scientific, cat. 35050061), 0.1 mg/mL primocin (InvivoGen, San Diego, CA, cat. ant-pm-2), 10% defined fetal bovine serum, heat inactivated (HyClone Laboratories Inc., Logan, UT, cat. SH30070.03HI), 50% L-WRN conditioned media (ATCC, cat. CRL-3276), 1.25 mM N-Acetyl-L-cysteine (Sigma-Aldrich, cat. A9165), 10 mM nicotinamide (Sigma-Aldrich, cat. N0636), 1X B-27 supplement (Thermo Fisher Scientific, cat. 17504044), 1X N-2 supplement (Thermo Fisher Scientific, cat. 17502048), 50 ng/mL human EGF (Thermo Fisher Scientific, cat. PHG0311), and 10 microM Y-27632 dihydrochloride (Tocris Bioscience, cat. 1254). The K12877-001-R-J1-PDC line was cultured in 6I media, which includes all 6C/Colon 1B media plus 10 ng/mL human FGF-10 (PeproTech, cat. 100-26), 1 ng/mL human FGF-2 (PeproTech, cat. 100-18B), 1 µM prostaglandin E2 (Tocris Bioscience, cat. 2296), […] hydrocortisone (Sigma-Aldrich, cat. H4001), and […] bovine insulin (Sigma-Aldrich, cat. I6634). The K86415-001-R-J1-PDC line was cultured in 6D media, which includes all 6C/Colon 1B media components minus the L-WRN conditioned media. The 485176-168-R4-J1-PDC was cultured in PANC media, which includes all 6C/Colon 1B media plus 100 ng/mL human FGF-10 (PeproTech, cat. 100-26), 500 nM SB-431542 (Selleckchem, cat. S1067), and 10 nM gastrin (Tocris Bioscience, cat. 3006). […]

[1] = curve of first compound, second compound 0.0316 µM
[2] = curve of first compound, second compound 0.1 µM
[3] = curve of first compound, second compound 0.316 µM
[4] = curve of first compound, second compound 1 µM
[5] = curve of first compound, second compound 3.16 µM
[6] = curve of first compound, second compound 10 µM
[7] = second compound 0.0316 µM, first compound 0.00316 µM
[8] = second compound 0.0316 µM, first compound 0.01 µM
[9] = second compound 0.0316 µM, first compound 0.0316 µM
[10] = second compound 0.0316 µM, first compound 0.1 µM
[11] = second compound 0.0316 µM, first compound 0.316 µM
[12] = second compound 0.0316 µM, first compound 1 µM
[13] = second compound 0.1 µM, first compound 0.00316 µM
[14] = second compound 0.1 µM, first compound 0.01 µM
[15] = second compound 0.1 µM, first compound 0.0316 µM
[16] = second compound 0.1 µM, first compound 0.1 µM
[17] = second compound 0.1 µM, first compound 0.316 µM
[18] = second compound 0.1 µM, first compound 1 µM
[19] = second compound 0.316 µM, first compound 0.00316 µM
[20] = second compound 0.316 µM, first compound 0.01 µM
[21] = second compound 0.316 µM, first compound 0.0316 µM
[22] = second compound 0.316 µM, first compound 0.1 µM
[23] = second compound 0.316 µM, first compound 0.316 µM
[24] = second compound 0.316 µM, first compound 1 µM
[25] = second compound 1 µM, first compound 0.00316 µM
[26] = second compound 1 µM, first compound 0.01 µM
[27] = second compound 1 µM, first compound 0.0316 µM
[28] = second compound 1 µM, first compound 0.1 µM
[29] = second compound 1 µM, first compound 0.316 µM
[30] = second compound 1 µM, first compound 1 µM
[31] = second compound 3.16 µM, first compound 0.00316 µM
[32] = second compound 3.16 µM, first compound 0.01 µM
[33] = second compound 3.16 µM, first compound 0.0316 µM
[34] = second compound 3.16 µM, first compound 0.1 µM
[35] = second compound 3.16 µM, first compound 0.316 µM
[36] = second compound 3.16 µM, first compound 1 µM
[37] = second compound 10 µM, first compound 0.00316 µM
[38] = second compound 10 µM, first compound 0.01 µM
[39] = second compound 10 µM, first compound 0.0316 µM
[40] = second compound 10 µM, first compound 0.1 µM
[41] = second compound 10 µM, first compound 0.316 µM
[42] = second compound 10 µM, first compound 1 µM
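Also: spheroids exposed to compounds for seven days before readout.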
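For viability, T/C in this document: luminescence viability expressed relative to DMSO vehicle wells set as 100%.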

C#Cc1c(F)ccc2cc(O)cc(-c3ncc4c(N5CC6CCC(C5)N6)nc(OCC56CCCN5CC(F)C6)nc4c3F)c12 (stereo unspecified)
> 10000 nM: IC50 (compound alone, run of 06/10/2024)
inactive: viability, T/C (compound 0.1 µM) 102% [middle of 8 runs] | viability, T/C (compound 0.316 µM) 97.6% [middle of 8 runs] | viability, T/C (compound 1 µM) 94% [middle of 8 runs] | viability, T/C (compound 3.16 µM) 99.5% [middle of 8 runs] | viability, T/C (compound 10 µM) 95.7% [middle of 8 runs]

NC1c2ccccc2OC12CCN(c1cnc3c(N4CCCc5ncccc54)n[nH]c3n1)CC2 (stereo unspecified)
> 10000 nM: IC50 (curve of compound)
inactive: viability, T/C (compound 0.1 µM) 79.2% [middle of 4 runs] | viability, T/C (compound 0.316 µM) 86.1% [middle of 4 runs] | viability, T/C (compound 1 µM) 85.1% [middle of 4 runs] | viability, T/C (compound 3.16 µM) 84.5% [middle of 4 runs] | viability, T/C (compound 10 µM) 72.2% [middle of 4 runs]

C=CC(=O)Nc1cc(Nc2nccc(-c3cn(C)c4ccccc34)n2)c(OC)cc1N(C)CCN(C)C + C#Cc1c(F)ccc2cc(O)cc(-c3ncc4c(N5CC6CCC(C5)N6)nc(OCC56CCCN5CC(F)C6)nc4c3F)c12
> 1000 nM: IC50 [1] | IC50 [2] | IC50 [3] | IC50 [4] | IC50 [5] | IC50 [6]
inactive: viability, T/C [7] 103% | viability, T/C [8] 90.8% | viability, T/C [9] 99% | viability, T/C [10] 80.7% | viability, T/C [11] 88.9% | viability, T/C [12] 66.7% | viability, T/C [13] 115% | viability, T/C [14] 109% | viability, T/C [15] 92.7% | viability, T/C [16] 92.9% | viability, T/C [17] 86.6% | viability, T/C [18] 66.8% | viability, T/C [19] 82.5% | viability, T/C [20] 83.1% | viability, T/C [21] 99% | viability, T/C [22] 100% | viability, T/C [23] 88.4% | viability, T/C [24] 62.3% | viability, T/C [25] 95.8% | viability, T/C [26] 80.8% | viability, T/C [27] 91% | viability, T/C [28] 96.1% | viability, T/C [29] 85.2% | viability, T/C [30] 64.4% | viability, T/C [31] 106% | viability, T/C [32] 89.5% | viability, T/C [33] 96.7% | viability, T/C [34] 75.6% | viability, T/C [35] 70.7% | viability, T/C [36] 68.5% | viability, T/C [37] 100% | viability, T/C [38] 86.6% | viability, T/C [39] 85.3% | viability, T/C [40] 103% | viability, T/C [41] 84% | viability, T/C [42] 61.9%

O=C(c1ccc(F)c(F)c1Nc1ccc(I)cc1F)N1CC(O)([C@@H]2CCCCN2)C1 + C#Cc1c(F)ccc2cc(O)cc(-c3ncc4c(N5CC6CCC(C5)N6)nc(OCC56CCCN5CC(F)C6)nc4c3F)c12
31 nM: IC50 [4]
88.8 nM: IC50 [5]
358 nM: IC50 [1]
53.9 nM: IC50 [6]
inactive: viability, T/C [7] 80.3% | viability, T/C [8] 79.3% | viability, T/C [9] 69.7% | viability, T/C [10] 72.4% | viability, T/C [11] 50.5% | viability, T/C [12] 41.1% | viability, T/C [13] 79% | viability, T/C [14] 82.2% | viability, T/C [15] 72.6% | viability, T/C [16] 62.5% | viability, T/C [17] 48.2% | viability, T/C [18] 37.5% | viability, T/C [19] 88% | viability, T/C [20] 72.3% | viability, T/C [21] 71.1% | viability, T/C [22] 56% | viability, T/C [23] 45.4% | viability, T/C [24] 41% | viability, T/C [25] 96% | viability, T/C [26] 77.7% | viability, T/C [27] 49.5% | viability, T/C [28] 47.3% | viability, T/C [29] 58.2% | viability, T/C [30] 38.9% | viability, T/C [31] 90.4% | viability, T/C [32] 86.4% | viability, T/C [33] 64.4% | viability, T/C [34] 50.6% | viability, T/C [35] 38.3% | viability, T/C [36] 39.2% | viability, T/C [37] 98.3% | viability, T/C [38] 60.1% | viability, T/C [39] 57.8% | viability, T/C [40] 51% | viability, T/C [41] 46.8% | viability, T/C [42] 29.9%
231 nM: IC50 [3]
267 nM: IC50 [2]
